Results reported in PMC7272617 (Scientific Reports, 2020).
Values after ≈ are worked out from the molar mass of the structure shown. Where a SMILES comes first, the peptide text is derived from it.

Assays:
[1] = test system: Acinetobacter baumannii MT strain; conditions: MT strain, 24 h
[2] = test system: Escherichia coli ATCC 25922; conditions: ATCC 25922, 24 h
[3] = test system: Vibrio cholera O1 Inaba DMST 16261; conditions: MHB, 37 °C, 24 h
[4] = test system: Staphylococcus epidermidis ATCC 12228; conditions: ATCC 12228, 24 h
[5] = test system: Salmonella Typhimurium ATCC 13311; conditions: ATCC 13311, 24 h
[6] = test system: Staphylococcus aureus ATCC 25923; conditions: ATCC 25923, 24 h
[7] = test system: all Gram-positive strains; assay: Mean MIC and therapeutic index, Gram-positive strains; type: cell-based; conditions: 5 Gram-positive strains of Table 3
Description: (§1) The antimicrobial activity of the peptides was determined against both Gram-positive and -negative bacteria including 14 MDR P. aeruginosa clinical isolates from Bhumibol Adulyadej Hospital (Tables 1 and 3). The minimal inhibitory concentration (MIC) of each peptide was measured according to a modification of the National Committee for Clinical Laboratory Standards (NCCLS) broth microdilution method as previously described. Briefly, bacterial cells in mid-log phase were cultured in Müeller-Hinton broth (MHB) and then diluted to 10^7 CFU/ml. […] Plates were incubated at 37 °C for 24 h, and MICs were defined as the lowest concentration of peptide that prevented visible turbidity. Cultures without peptides and uninoculated MHB were employed as positive and negative controls, respectively. Colony count assays were performed to determine the minimal bactericidal concentrations (MBCs) for determination of time-killing activity. As previously described, a 50 μl aliquot from each non-turbid well identified in the MIC determination experiment was spread on agar plates.
(§2) To further evaluate the global activity of these peptides, the geometric mean (GM) MIC and the therapeutic index (TI) of each were calculated (Table 3). The TI, a widely used parameter to evaluate cell selectivity and specificity of antimicrobial agents, was calculated as the ratio of MHC (the concentration that causes 10% hemolysis) to the geometric mean of MICs[22]. Higher TIs indicated greater cell selectivity and specificity.

[8] = test system: Escherichia coli O157:H7 MT strain; conditions: E. coli O157:H7 MT strain; MHB, 37 °C, 24 h
[9] = test system: Listeria monocytogenes 10403 s; conditions: 10403 s, 24 h
[10] = test system: all Gram-negative strains; assay: Mean MIC and therapeutic index, Gram-negative strains; type: cell-based; conditions: 7 Gram-negative strains of Table 3
Description: as §1, §2

[11] = test system: Enterococcus faecalis ATCC 29212; conditions: ATCC 29212, 24 h
[12] = test system: Gram-negative and -positive bacterial strains; assay: MIC against the panel of Gram-negative and -positive bacterial strains; type: cell-based; conditions: 12 strains of Table 3; result in words
[13] = test system: Bacillus cereus ATCC 11778; conditions: ATCC 11778, 24 h
[14] = test system: Pseudomonas aeruginosa ATCC 27853; conditions: ATCC 27853, 24 h
[15] = test system: Shigella sonnei ATCC 11060; conditions: MHB, 37 °C, 24 h

Row | SMILES | MIC [1] [µg/mL] | MIC [2] [µg/mL] | MIC [3] [µg/mL] | MIC [4] [µg/mL] | MIC [5] [µg/mL] | MIC [6] [µg/mL] | GM (Gr.+ strains): geometric mean of MIC values from all Gram-positive strains [7] [µg/mL] | MIC [8] [µg/mL] | MIC [9] [µg/mL] | GM (Gr.− strains): geometric mean of MIC values from all Gram-negative strains [10] [µg/mL] | MIC [11] [µg/mL] | antibacterial activity against tested microorganisms [12] | MIC [13] [µg/mL] | MIC [14] [µg/mL] | MIC [15] [µg/mL]
1 | CC[C@H](C)[C@H](NC(=O)[C@H](CCCNC(=N)N)NC(=O)[C@H](CCCCN)NC(=O)[C@H](C)NC(=O)[C@@H](NC(=O)[C@@H](N)CCCCN)[C@@H](C)CC)C(=O)N[C@@H](Cc1c[nH]c2ccccc12)C(=O)N[C@@H](CCCCN)C(=O)N[C@H](C(=O)N[C@@H](CC(C)C)C(=O)N[C@@H](CCCNC(=N)N)C(=O)N[C@@H](CCCNC(=N)N)C(=O)N[C@@H](CCCNC(=N)N)C(=O)N[C@@H](CC(C)C)C(=O)N[C@@H](Cc1ccccc1)C(=O)N[C@@H](CCCNC(=N)N)C(=O)N[C@@H](CCCNC(=N)N)C(=O)N[C@H](C(N)=O)C(C)C)[C@@H](C)CC [PA-18] (H-KIAKRIWKILRRRLFRRV-NH2; N-terminus assumed) | 15.63 (≈ 6.49 µM) | 31.25 (≈ 13 µM) | 7.81 (≈ 3.24 µM) | 3.91 (≈ 1.62 µM) | 3.91 (≈ 1.62 µM) | 15.63 (≈ 6.49 µM) | 12.11 | 250 (≈ 104 µM) | 1.95 (≈ 0.81 µM) | 45.76 | 31.25 (≈ 13 µM) | – | – | – | –
2 | CC[C@H](C)[C@H](NC(=O)[C@H](CC(=O)O)NC(=O)[C@H](Cc1ccccc1)NC(=O)[C@H](CC(C)C)NC(=O)CN)C(=O)N[C@H](C(=O)N[C@@H](CCCCN)C(=O)N[C@@H](CCCCN)C(=O)N[C@H](C(=O)N[C@@H](C)C(=O)NCC(N)=O)C(C)C)C(C)C [A0] (H-GLFDIVKKVAG-NH2; N-terminus assumed) | >250 | >250 | >250 | >250 | >250 | >250 | >250 | >250 | >250 | >250 | >250 | no antibacterial activity | >250 | >250 | >250
3 | CC[C@H](C)[C@H](NC(=O)[C@H](CCCNC(=N)N)NC(=O)[C@H](CCCCN)NC(=O)[C@H](C)NC(=O)[C@@H](NC(=O)[C@@H](N)CCCCN)[C@@H](C)CC)C(=O)N[C@@H](Cc1c[nH]c2ccccc12)C(=O)N[C@@H](CCCCN)C(=O)N[C@H](C(=O)N[C@@H](CC(C)C)C(=O)N[C@@H](CCCNC(=N)N)C(=O)N[C@@H](CCCNC(=N)N)C(N)=O)[C@@H](C)CC [P7] (H-KIAKRIWKILRR-NH2; N-terminus assumed) | 7.81 (≈ 4.94 µM) | 15.63 (≈ 9.89 µM) | 31.25 (≈ 19.8 µM) | 3.91 (≈ 2.47 µM) | 7.81 (≈ 4.94 µM) | 62.5 (≈ 39.6 µM) | 121.09 | 125 (≈ 79.1 µM) | 7.81 (≈ 4.94 µM) | 28.46 | >250 | potent antibacterial activity | – | 7.81 (≈ 4.94 µM) | –
4 | CC[C@H](C)[C@H](NC(=O)[C@H](CCCNC(=N)N)NC(=O)[C@H](CCCCN)NC(=O)[C@H](C)NC(=O)[C@@H](NC(=O)[C@@H](N)CCCCN)[C@@H](C)CC)C(=O)N[C@@H](Cc1c[nH]c2ccccc12)C(=O)N[C@@H](CCCCN)C(=O)N[C@H](C(=O)N[C@@H](CC(C)C)C(=O)N[C@@H](CCCNC(=N)N)C(=O)N[C@@H](CCCNC(=N)N)C(=O)N[C@@H](CCCNC(=N)N)C(=O)N[C@@H](CC(C)C)C(N)=O)[C@@H](C)CC [PA-14] (H-KIAKRIWKILRRRL-NH2; N-terminus assumed) | 3.91 (≈ 2.11 µM) | 15.63 (≈ 8.45 µM) | 7.81 (≈ 4.22 µM) | 3.91 (≈ 2.11 µM) | 1.95 (≈ 1.05 µM) | 15.63 (≈ 8.45 µM) | 30.86 | 62.5 (≈ 33.8 µM) | 1.95 (≈ 1.05 µM) | 14.23 | 125 (≈ 67.6 µM) | – | – | 3.91 (≈ 2.11 µM) | –
5 | CC[C@H](C)[C@H](NC(=O)[C@H](CCCNC(=N)N)NC(=O)[C@H](CCCCN)NC(=O)[C@H](CCCCN)NC(=O)[C@@H](NC(=O)[C@H](CCCCN)NC(=O)[C@H](CCC(=O)O)NC(=O)[C@H](CCCCN)NC(=O)[C@@H](N)CCCNC(=N)N)[C@@H](C)CC)C(=O)NCC(=O)N[C@@H](CCCCN)C(=O)N[C@H](C(=O)N[C@@H](CC(=O)O)C(=O)N[C@@H](CCCNC(=N)N)C(=O)N[C@@H](CC(C)C)C(N)=O)[C@@H](C)CC [P0] (H-RKEKIKKRIGKIDRL-NH2; N-terminus assumed) | >250 | >250 | >250 | >250 | >250 | >250 | >250 | >250 | >250 | >250 | >250 | no antibacterial activity | >250 | >250 | >250
6 | CC(C)C[C@H](NC(=O)[C@@H](N)CCCNC(=N)N)C(=O)N[C@@H](Cc1ccccc1)C(=O)N[C@@H](CCCNC(=N)N)C(=O)N[C@@H](CCCNC(=N)N)C(=O)N[C@H](C(=O)N[C@@H](CCCCN)C(=O)N[C@@H](CCCCN)C(=O)N[C@H](C(=O)N[C@@H](C)C(=O)NCC(N)=O)C(C)C)C(C)C [A3] (H-RLFRRVKKVAG-NH2; N-terminus assumed) | >250 | >250 | >250 | >250 | >250 | >250 | >250 | >250 | 250 (≈ 188 µM) | >250 | >250 | no antibacterial activity | >250 | >250 | >250
7 | CC[C@H](C)[C@H](NC(=O)[C@H](CCCNC(=N)N)NC(=O)[C@H](CCCCN)NC(=O)[C@H](C)NC(=O)[C@@H](NC(=O)[C@@H](N)CCCCN)[C@@H](C)CC)C(=O)N[C@@H](Cc1c[nH]c2ccccc12)C(=O)N[C@@H](CCCCN)C(=O)N[C@H](C(=O)N[C@@H](CC(C)C)C(=O)N[C@@H](CCCNC(=N)N)C(=O)N[C@@H](CCCNC(=N)N)C(=O)N[C@@H](CCCNC(=N)N)C(=O)N[C@@H](CC(C)C)C(=O)N[C@@H](Cc1ccccc1)C(=O)N[C@@H](CCCNC(=N)N)C(N)=O)[C@@H](C)CC [PA-16] (H-KIAKRIWKILRRRLFR-NH2; N-terminus assumed) | 7.81 (≈ 3.63 µM) | 7.81 (≈ 3.63 µM) | 3.91 (≈ 1.82 µM) | – | 1.95 (≈ 0.906 µM) | 7.81 (≈ 3.63 µM) | 7.03 | 62.5 (≈ 29 µM) | – | 13.67 | 15.63 (≈ 7.26 µM) | – | – | 7.81 (≈ 3.63 µM) | –
